# Test results: patent US11084795B2, “CFTR regulators and methods of use thereof” (The Regents of the University of California, priority 2015, dated 2021)
# Entries after “also recorded” stand apart in the source; their conditions may differ. Read-outs that look alike come from different tables or passages of the source. Where a SMILES comes first, the peptide text is derived from it. Bridges are numbered along the chain shown (N, C = ends).
# Legend:
# loperamide-treated mice = assay: Loperamide-induced mouse model of constipation
# FRT cells = assay: Alamar Blue cytotoxicity assay in FRT cells; assay type: cell-based, rat; conditions: up to 100 μM, 1 or 24 h
# [1] = system: CFTR at the ocular surface; assay: Ocular surface potential difference (PD) in living mice; assay type: in vivo, mouse; conditions: wild-type mice; for change in ocular surface PD: 1-10 μM
# Protocol: Open-circuit transepithelial PD were measured continuously in anesthetized mice in response to serial perfusions of different solutions over the ocular surface, as described (21). Mice were anesthetized with Avertin (2,2,2-tribromoethanol, 125 mg/kg intraperitoneal, Sigma-Aldrich, St. Louis, Mo., USA), and core temperature was maintained at 37° C. using a heating pad. Eyes were oriented with the cornea and conjunctiva facing upward and exposed by retracting the eyelid with cross-action forceps. Solutions were isosmolar (320±10 mOsM; compositions provided in ref. 21) and contained 10μ[…] indomethacin to prevent CFTR activation by prostaglandins. The ocular surface was perfused at 6 mL/min through plastic tubing using a multireservoir gravity pinch-valve system (ALA Scientific, Westbury, N.Y., USA) and variable-flow peristaltic pump (medium flow model; Fisher Scientific, Fair Lawn, N.J., USA). A probe catheter was fixed 1 mm above the cornea using a micropositioner and a suction cannula was positioned 3 mm from the orbit. The measuring electrode was in contact to the perfusion catheter and connected to a high-impedance voltmeter (IsoMilivolt Meter; WPI). The reference electrode was grounded via a winged 21-gauge needle filled with isosmolar saline, and inserted subcutaneously in the abdomen. Measuring and reference electrodes consisted of Ag/AgCl with 3 M KCl agar bridges.
# An open-circuit potential difference (PD) method developed in our lab was used to evaluate compound activity at the ocular surface in vivo, as depicted in FIG. 3A (21). Cl^− channel function was quantified by measuring PD during continuous perfusion of the ocular surface with a series of solutions that imposed a transepithelial Cl^− gradient and contained various channel agonists and/or inhibitors. The ocular surface was first perfused with isosmolar saline to record the baseline PD. Amiloride was then added to the perfusate, followed by exchange to a low Cl^− solution in which Cl^− with an impermeant anion, gluconate. These maneuvers allow for direct visualization of CFTR activation in response to addition of candidate CFTR activators.
# Ocular surface potential difference measurements. Open-circuit transepithelial PD were measured continuously in anesthetized mice in response to serial perfusions of different solutions over the ocular surface, as described (21). Mice were anesthetized with Avertin (2,2,2-tribromoethanol, 125 mg/kg intraperitoneal, Sigma-Aldrich, St. Louis, Mo., USA), and core temperature was maintained at 37° C. using a heating pad. Eyes were oriented with the cornea and conjunctiva facing upward and exposed by retracting the eyelid with cross-action forceps. […]
# tear fluid secretion = assay type: in vivo, mouse
# [2] = Compound accumulation in systemic tissues after 14 days topical dosing; assay type: in vivo, mouse
# [3] = Ocular toxicity after chronic topical dosing (slit-lamp, lissamine green staining); assay type: in vivo; conditions: chronically treated mice
# Protocol: (§1) To assess corneal epithelial disruption, 5 μL of lissamine green (LG) dye (1%) was applied to the ocular surface of isofluorane-anesthetized mice. Photographs of the eye were taken using a Nikon Digital camera adapted to an Olympus Zoom Stereo Microscope (Olympus, Center Valley, Pa., USA). Each corneal quadrant was scored on a 3-point scale by one blinded, trained observer, with the extent of staining in each quadrant classified as: 0, no staining; 1, sporadic (involving <25% of the total surface) staining; grade 2, diffuse punctate staining (25-75%); and grade 3, coalesced punctate staining (>75%). The total grade is reported as the sum of scores from all four quadrants, ranging from 0 to 12.
# as §1, with “Lissamine green staining. To” for “To”, “(≥75%).” for “(>75%).”
# LGE BALB/c mice = assay: Lacrimal gland excision (LGE) mouse model of aqueous-deficient dry eye; assay type: in vivo
# Protocol: as §1
# A lacrimal gland excision (LGE) model of aqueous-deficient dry eye was adapted from a reported method (30). The extraorbital lacrimal gland was exposed on each side of wild-type female BALB/c mice (7-8 weeks of age) by 3-mm linear skin incisions. Lacrimal ducts were cauterized and the entire gland was removed bilaterally, avoiding facial vessels and nerves. Incisions were each closed with a single interrupted 6-0 silk suture. Orbital lacrimal tissue remained functional. Eyes with reduced corneal sensation (<5% of mice studied), as identified from neurotrophic corneal ulcers within 1 day of LGE, were excluded. Mice were randomized to receive either treatment (in both eyes) with CFTRact-K089 (0.1 nmol) or vehicle. Mice were treated three times daily (8 AM, 2 PM and 8 PM) for 2 weeks starting on Day 1 after LGE. Tear secretion and LG staining were performed immediately prior to, and one hour after the initial dose on day 4, 10 and 14 after LGE.
# Lissamine green staining. […] Each corneal quadrant was scored on a 3-point scale by one blinded, trained observer, with the extent of staining in each quadrant classified as: 0, no staining; 1, sporadic (involving <25% of the total surface) staining; grade 2, diffuse punctate staining (25-75%); and grade 3, coalesced punctate staining (≥75%). […]
# [4] = Tear film pharmacokinetics (LC/MS of tear washes)
# human wildtype CFTR [5] = biological target: T1, human wildtype CFTR (Homo sapiens, UniProt P13569); assay: Short-circuit current (Isc) in FRT cells expressing human wild-type CFTR; conditions: for extent of CFTR activation (Isc): forskolin produced little or no further increase in current; for EC50: FRT cells, short-circuit current
# T1 sequence (P13569 whole entry): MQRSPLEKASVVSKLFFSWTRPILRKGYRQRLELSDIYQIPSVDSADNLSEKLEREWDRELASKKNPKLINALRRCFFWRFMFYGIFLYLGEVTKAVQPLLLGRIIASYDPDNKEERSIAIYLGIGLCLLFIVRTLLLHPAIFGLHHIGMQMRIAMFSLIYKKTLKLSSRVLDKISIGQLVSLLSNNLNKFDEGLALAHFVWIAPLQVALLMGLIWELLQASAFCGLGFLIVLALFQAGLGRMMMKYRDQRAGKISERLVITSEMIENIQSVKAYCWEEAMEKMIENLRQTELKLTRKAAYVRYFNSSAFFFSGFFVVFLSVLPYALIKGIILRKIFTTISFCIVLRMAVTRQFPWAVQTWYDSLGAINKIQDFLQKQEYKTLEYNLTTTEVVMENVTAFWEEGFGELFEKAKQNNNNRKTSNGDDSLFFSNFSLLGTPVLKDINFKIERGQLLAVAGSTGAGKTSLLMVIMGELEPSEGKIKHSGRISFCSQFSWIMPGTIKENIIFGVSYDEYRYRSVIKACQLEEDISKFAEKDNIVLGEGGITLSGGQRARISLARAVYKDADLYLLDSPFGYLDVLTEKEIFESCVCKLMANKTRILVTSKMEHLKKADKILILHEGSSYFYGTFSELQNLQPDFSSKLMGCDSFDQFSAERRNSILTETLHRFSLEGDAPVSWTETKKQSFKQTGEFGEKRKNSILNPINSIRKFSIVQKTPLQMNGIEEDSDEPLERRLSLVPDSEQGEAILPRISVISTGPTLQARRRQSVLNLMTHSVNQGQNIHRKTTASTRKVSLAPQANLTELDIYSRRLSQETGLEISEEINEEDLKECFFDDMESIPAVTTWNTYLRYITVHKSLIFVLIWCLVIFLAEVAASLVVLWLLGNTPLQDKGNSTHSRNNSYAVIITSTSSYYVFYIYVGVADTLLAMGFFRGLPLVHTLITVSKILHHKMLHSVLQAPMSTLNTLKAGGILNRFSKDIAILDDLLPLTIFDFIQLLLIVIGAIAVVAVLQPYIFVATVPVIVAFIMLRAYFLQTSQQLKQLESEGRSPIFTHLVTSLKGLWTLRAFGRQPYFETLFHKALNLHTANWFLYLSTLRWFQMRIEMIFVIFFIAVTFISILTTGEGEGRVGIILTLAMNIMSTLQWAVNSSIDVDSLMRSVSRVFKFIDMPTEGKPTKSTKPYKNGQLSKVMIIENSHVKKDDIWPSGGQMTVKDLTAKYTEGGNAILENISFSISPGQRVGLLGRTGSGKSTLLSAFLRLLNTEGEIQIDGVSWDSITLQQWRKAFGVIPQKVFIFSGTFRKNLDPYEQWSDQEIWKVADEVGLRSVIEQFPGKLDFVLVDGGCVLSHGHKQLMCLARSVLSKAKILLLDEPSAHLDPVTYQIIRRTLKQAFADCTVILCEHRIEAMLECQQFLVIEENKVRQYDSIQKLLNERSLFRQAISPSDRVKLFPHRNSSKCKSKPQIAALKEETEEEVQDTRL
# [6] = system: chronic constipation / IBS-C patients; conditions: linaclotide: chronic constipation; lubiprostone: IBS-C; cited from earlier work
# human wildtype CFTR [7] = biological target: T1, human wildtype CFTR; assay: Fluorescence plate reader assay of iodide influx in FRT cells co-expressing CFTR and YFP halide sensor
# [8] = wild-type mice, B074 100 μM, J027 and K089 50 μM, VX-770 10 μM, cholera toxin 0.1 μg/mL, forskolin 20 μM, IBMX 250 μM
molecule,measurement,setting,value
"Cn1c(=O)c(-c2cc([N+](=O)[O-])ccc2N)nc2ccccc21 [inactive chemical analog of CFTRact-J027, reference compound]",efficacy on stool parameters of inactive analog,loperamide-treated mice; loperamide-treated wildtype mice,nor was an inactive chemical analog of CFTRact-J027 effective in wildtype mice
CCN(CC)c1nc(Nc2ccccc2)nc(OC(C(F)(F)F)C(F)(F)F)n1 [CFTRact-K089],in vitro cytotoxicity,FRT cells,no appreciable in vitro cytotoxicity
same,hyperpolarization in ocular surface potential difference,[1],~8.5 mV
same,change in ocular surface PD,[1],large hyperpolarizations
same,tear fluid secretion in CF mice,tear fluid secretion; CF mice,no effect in CF mice
same,tear fluid secretion after single topical dose,tear fluid secretion; [8],doubled basal tear secretion for four hours; also recorded: increased tear fluid secretion by approximately two-fold for at least four hours
same,systemic absorption after topical delivery,[2]; topical,without detectable systemic absorption
same,"amount in mouse blood, brain, liver and kidney (limit of detection)",[2]; two weeks of three times per day topical dosing,< 10 fmol
same,LG staining of cornea and conjunctiva,[3],no corneal or conjunctival epithelial disruption
same,ocular toxicity (slit-lamp evaluation),"[3]; topical three times daily, two weeks",no signs of ocular toxicity
same,corneal / ocular surface epithelial disruption after LGE,LGE BALB/c mice; 0.1 nmol three times daily,fully prevented the corneal epithelial disruption; also recorded: prevented ocular surface epithelial disruption at all time points
same,tear volume after LGE,LGE BALB/c mice; 0.1 nmol topically three times daily,restored tear secretion to basal levels; also recorded: maintained basal tear volume
same,LG score change,"LGE BALB/c mice; 12-point scale, by Day 14, 0.1 nmol three times daily",−0.6±0.6
same,amount recovered from tear washes at six hours,"[4]; 0.1 nmol (2 μL, 50 μM) instilled",0.011 ± 0.004 pmol
same,duration of predicted therapeutic tear fluid levels,[4]; 0.1 nmol single dose,therapeutic levels for at least six hours
same,CFTR activation (% Vmax),human wildtype CFTR [5]; 100% = 20 μM forskolin,~50 % Vmax
same,extent of CFTR activation (Isc),human wildtype CFTR [5],fully activated CFTR
same,EC50,"human wildtype CFTR [5]; read-out: EC50 for CFTR activation, wild-type CFTR",~250 nM
"CC(C)Cn1c(=O)n(C)c(=O)c2[nH]cnc21 [IBMX, 3-isobutyl-1-methylxanthine, reference compound]",tear fluid secretion after single topical dose,tear fluid secretion; [8],"substantially increased basal tear secretion at 30 min, but these effects were transient and undetectable after 2 hours"
CCCCC(F)(F)[C@@]1(O)CC[C@H]2[C@@H](CC(=O)[C@@H]2CCCCCCC(=O)O)O1 [lubiprostone],patients in whom the drug was effective,[6],~13%
cholera toxin [reference compound],tear fluid secretion after single topical dose,"tear fluid secretion; mouse, in vivo","substantially increased basal tear secretion at 30 min, but these effects were transient and undetectable after 2 hours"
"CC(C)(C)c1cc(C(C)(C)C)c(NC(=O)c2c[nH]c3ccccc3c2=O)cc1O [VX-770, reference compound]",change in ocular surface PD,[1],minimal changes in ocular surface PD
same,tear fluid secretion after single topical dose,tear fluid secretion; [8],little tear secretion
same,activity against wild-type CFTR,human wildtype CFTR [5],relatively weak activity
same,maximal CFTR activation,human wildtype CFTR [5]; wild-type CFTR,15%
"C[C@@H]1NC(=O)[C@@H]2CCCN2C(=O)[C@H](CC(N)=O)NC(=O)[C@@H]2CSSC[C@H](N)C(=O)N[C@H]3CSSC[C@H](NC1=O)C(=O)N[C@@H]([C@@H](C)O)C(=O)NCC(=O)N[C@H](C(=O)N[C@@H](Cc1ccc(O)cc1)C(=O)O)CSSC[C@H](NC(=O)[C@H](Cc1ccc(O)cc1)NC(=O)[C@H](CCC(=O)O)NC3=O)C(=O)N2 [linaclotide, reference compound] (H-CCEYCCNPACTGCY-OH; disulfide 1-6, 2-10, 5-13)",patients in whom the drug was effective,[6],~20%
same,stool output normalization as % of the maximal CFTRact-J027 response,"loperamide-treated mice; oral 0.5 mg/kg, loperamide-treated mice",35%
"Nc1ccc([N+](=O)[O-])cc1-c1nc2cc(Cl)ccc2n(Cc2ccccc2)c1=O [CFTRact-J135, 3-(2-Amino-5-nitrophenyl)-1-benzyl-6-chloroquinoxalin-2(1H)-one]",EC50,"human wildtype CFTR [5]; EC50 for CFTR activation, wild-type CFTR",~300 nM
same,extent of CFTR activation (Isc),human wildtype CFTR [5],fully activated CFTR
same,EC50,human wildtype CFTR [7],110 nM
"CC(=O)Nc1ccc([N+](=O)[O-])cc1-c1nc2cccc3c2n(c1=O)CCO3 [Compound 16, N-(4-nitro-2-(5-oxo-2,3-dihydro-5H-[1,4]oxazino[4,3,2-de]quinoxalin-6-yl)phenyl) acetamide]",EC50,"human wildtype CFTR [7]; read-out: EC50, constrained ring analogs, plate reader assay",820 nM
